Source: patent publication US6350585B1, “Reagent for assay of amylase isozyme activity” (priority 1998, dated 2002)

How the values were obtained:
[1] = target: T1, P-type amylase (Homo sapiens, UniProt P04746); assay: P-type amylase activity assay of serum with reagent E; type: biochemical; settings: for P-type amylase activity value / Blank, change in absorbance per minute: composition E; for P-type amylase activity value: potassium thiocyanate 140 mM; for Blank, change in absorbance per minute: distilled water as sample
T1 construct: Serum (1, 2 or 3); from tissue; host or cells: serum
T1 sequence (P04746 16-511): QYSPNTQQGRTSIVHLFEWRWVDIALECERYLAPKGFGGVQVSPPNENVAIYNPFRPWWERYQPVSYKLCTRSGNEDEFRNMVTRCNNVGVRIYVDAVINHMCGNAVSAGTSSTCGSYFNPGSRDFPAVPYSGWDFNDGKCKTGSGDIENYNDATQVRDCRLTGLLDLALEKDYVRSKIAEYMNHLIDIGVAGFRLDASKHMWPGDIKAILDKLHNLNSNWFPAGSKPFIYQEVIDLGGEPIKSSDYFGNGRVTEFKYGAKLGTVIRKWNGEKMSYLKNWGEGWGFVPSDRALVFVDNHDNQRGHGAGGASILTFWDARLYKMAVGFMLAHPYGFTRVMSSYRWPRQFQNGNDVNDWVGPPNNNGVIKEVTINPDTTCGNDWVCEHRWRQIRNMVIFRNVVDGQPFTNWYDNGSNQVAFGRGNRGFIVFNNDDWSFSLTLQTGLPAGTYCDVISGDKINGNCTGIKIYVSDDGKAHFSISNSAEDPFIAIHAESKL
Method: Good buffer (pH 6.2) 50 mM
S-type amylase inhibitory antibody 88E8 (manufactured by Roche Diagnostics K.K.) 15 mg/L
S-type amylase inhibitory antibody 66C7 (manufactured by Roche Diagnostics K.K.) 1.25 mg/L
Potassium thiocyanate 140 mM
(§1) Substrate (GalG2CNP (Example) or G3CNP (Comparative Example)) 2.6 mM
(1) Distilled water (blank)
Each of the above-mentioned reagents (0.05 mL) was added to the above reagent E (3 mL) and the mixtures were left standing at 37° C. for 3 minutes. Then, change in absorbance at 405 nm was assayed and change in absorbance per minute was calculated. The obtained change in absorbance was converted to P-type amylase activity value at this composition using the molecular extinction coefficient of CNP.

[2] = target: T2, S-type amylase (Calibzyme S) (Homo sapiens, UniProt P0DUB6); assay: amylase isozyme activity assay with potassium thiocyanate as activator, S-type amylase sample; type: biochemical; settings: for Relative sensitivity: G3CNP at 900 mM = 100; for Percent residual enzyme activity: composition A/B
T2 construct: purchased International Reagents Corporation Calibzyme S
T2 sequence (P0DUB6 16-511): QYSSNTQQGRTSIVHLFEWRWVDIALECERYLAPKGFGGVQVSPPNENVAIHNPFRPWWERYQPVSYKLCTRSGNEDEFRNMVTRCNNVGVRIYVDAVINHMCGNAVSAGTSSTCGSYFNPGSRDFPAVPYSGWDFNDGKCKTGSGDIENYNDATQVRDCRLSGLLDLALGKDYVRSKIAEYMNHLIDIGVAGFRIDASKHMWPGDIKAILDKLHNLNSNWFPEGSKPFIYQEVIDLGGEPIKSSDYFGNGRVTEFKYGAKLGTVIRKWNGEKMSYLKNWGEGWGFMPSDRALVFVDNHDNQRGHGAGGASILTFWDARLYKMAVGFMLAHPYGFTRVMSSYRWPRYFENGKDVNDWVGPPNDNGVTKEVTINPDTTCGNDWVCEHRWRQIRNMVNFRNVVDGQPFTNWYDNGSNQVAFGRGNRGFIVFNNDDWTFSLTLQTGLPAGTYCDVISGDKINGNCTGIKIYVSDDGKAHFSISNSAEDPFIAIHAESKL
Method: A reagent for amylase isozyme activity assay comprising each composition as mentioned below was prepared. In the Table showing the composition, GalG2CNP (Example) is 2-chloro-4-nitrophenyl 4-O-β-D-galactopyranosylmaltoside, and G3CNP (Comparative Example) is 2-chloro-4-nitrophenylmaltotrioside.
S-type amylase-inhibiting antibody 88E8 (manufactured by Roche Diagnostics K.K.) 20 mg/L
S-type amylase-inhibiting antibody 66C7 (manufactured by Roche Diagnostics K.K.) 5 mg/L
as §1
(3) S-type Amylase (Calibzyme S, Manufactured by International Reagents Corporation)
Each sample (0.05 mL was added to the reagent A (3 mL) and the reagent B (3 mL), respectively, and the mixtures were allowed to stand at 37° C. for 3 minutes. Then, the change in absorbance at 405 nm was assayed, and the change in absorbance per minute was calculated. The results are shown in Tables 1 and 2.
In the Tables, P is the case where P-type amylase was used as the sample, and S is the case where S-type amylase was used.
Percent residual enzyme activity (%)=(change in absorbance of composition A)/(change in absorbance of composition B)×100
Relative sensitivity (%)=(change in absorbance of composition B)/(change in absorbance of Comparative Example wherein potassium thiocyanate was 900 mM)×100

## O=[N+]([O-])c1ccc(O[C@H]2O[C@H](CO)[C@@H](O[C@H]3O[C@H](CO)[C@@H](O[C@H]4O[C@H](CO)[C@@H](O)[C@H](O)[C@H]4O)[C@H](O)[C@H]3O)[C@H](O)[C@H]2O)c(Cl)c1 [Example G3CNP, 2-chloro-4-nitrophenylmaltotrioside, reference compound]
[1]; Serum 1
  P-type amylase activity value: 16.8 IU/L
[1]; Serum 2
  P-type amylase activity value: 106.3 IU/L
[1]; Serum 3
  P-type amylase activity value: 80.9 IU/L
[1]
  Blank, change in absorbance per minute: 0.0006 ABS/min
[2]; potassium thiocyanate 0 mM
  Change in absorbance, Containing Antibody (Composition A): 0.5 mABS/min
  Change in absorbance, Without antibody (Composition B): 4.9 mABS/min
  Relative sensitivity: 11.0%
  Percent residual enzyme activity: 10.2%
[2]; potassium thiocyanate 50 mM
  Change in absorbance, Containing Antibody (Composition A): 0.7 mABS/min
  Change in absorbance, Without antibody (Composition B): 14.8 mABS/min
  Relative sensitivity: 33.1%
  Percent residual enzyme activity: 4.7%
[2]; potassium thiocyanate 100 mM
  Change in absorbance, Containing Antibody (Composition A): 0.9 mABS/min
  Change in absorbance, Without antibody (Composition B): 21.9 mABS/min
  Relative sensitivity: 49.0%
  Percent residual enzyme activity: 4.1%
[2]; potassium thiocyanate 140 mM
  Change in absorbance, Containing Antibody (Composition A): 1.3 mABS/min
  Change in absorbance, Without antibody (Composition B): 26.6 mABS/min
  Relative sensitivity: 59.5%
  Percent residual enzyme activity: 4.9%
[2]; potassium thiocyanate 200 mM
  Change in absorbance, Containing Antibody (Composition A): 1.5 mABS/min
  Change in absorbance, Without antibody (Composition B): 31.4 mABS/min
  Relative sensitivity: 70.2%
  Percent residual enzyme activity: 4.8%
[2]; potassium thiocyanate 300 mM
  Change in absorbance, Containing Antibody (Composition A): 2.2 mABS/min
  Change in absorbance, Without antibody (Composition B): 39.7 mABS/min
  Relative sensitivity: 88.8%
  Percent residual enzyme activity: 5.5%
[2]; potassium thiocyanate 400 mM
  Change in absorbance, Containing Antibody (Composition A): 3.3 mABS/min
  Change in absorbance, Without antibody (Composition B): 43.2 mABS/min
  Relative sensitivity: 96.6%
  Percent residual enzyme activity: 7.6%
[2]; potassium thiocyanate 500 mM
  Change in absorbance, Containing Antibody (Composition A): 4.6 mABS/min
  Change in absorbance, Without antibody (Composition B): 45.8 mABS/min
  Relative sensitivity: 102.5%
  Percent residual enzyme activity: 10.0%
[2]; potassium thiocyanate 600 mM
  Change in absorbance, Containing Antibody (Composition A): 5.4 mABS/min
  Change in absorbance, Without antibody (Composition B): 47.3 mABS/min
  Relative sensitivity: 105.8%
  Percent residual enzyme activity: 11.4%
[2]; potassium thiocyanate 700 mM
  Change in absorbance, Containing Antibody (Composition A): 7.0 mABS/min
  Change in absorbance, Without antibody (Composition B): 47.1 mABS/min
  Relative sensitivity: 105.4%
  Percent residual enzyme activity: 14.9%
[2]; potassium thiocyanate 800 mM
  Change in absorbance, Containing Antibody (Composition A): 8.4 mABS/min
  Change in absorbance, Without antibody (Composition B): 45.8 mABS/min
  Relative sensitivity: 102.5%
  Percent residual enzyme activity: 18.3%
[2]; potassium thiocyanate 900 mM
  Change in absorbance, Containing Antibody (Composition A): 10.0 mABS/min
  Change in absorbance, Without antibody (Composition B): 44.7 mABS/min
  Relative sensitivity: 100.0%
  Percent residual enzyme activity: 22.4%

## O=[N+]([O-])c1ccc(O[C@H]2O[C@H](CO)[C@@H](O[C@H]3O[C@H](CO)[C@@H](O[C@@H]4O[C@H](CO)[C@H](O)[C@H](O)[C@H]4O)[C@H](O)[C@H]3O)[C@H](O)[C@H]2O)c(Cl)c1 [GalG2CNP, 2-chloro-4-nitrophenyl 4-O-β-D-galactopyranosylmaltoside]
[1]; Serum 1
  P-type amylase activity value: 32.3 IU/L
[1]; Serum 2
  P-type amylase activity value: 205.0 IU/L
[1]; Serum 3
  P-type amylase activity value: 156.8 IU/L
[1]; Table 5, serum samples
  sensitivity (change in absorbance) compared with Comparative Example: superior sensitivity
[1]
  Blank, change in absorbance per minute: 0.0004 ABS/min
[2]; potassium thiocyanate 0 mM
  Change in absorbance, Containing Antibody (Composition A): 0.9 mABS/min
  Change in absorbance, Without antibody (Composition B): 14.3 mABS/min
  Relative sensitivity: 32.0%
  Percent residual enzyme activity: 6.3%
[2]; potassium thiocyanate 50 mM
  Change in absorbance, Containing Antibody (Composition A): 1.4 mABS/min
  Change in absorbance, Without antibody (Composition B): 31.1 mABS/min
  Relative sensitivity: 69.6%
  Percent residual enzyme activity: 4.5%
[2]; potassium thiocyanate 100 mM
  Change in absorbance, Containing Antibody (Composition A): 1.7 mABS/min
  Change in absorbance, Without antibody (Composition B): 40.2 mABS/min
  Relative sensitivity: 89.9%
  Percent residual enzyme activity: 4.2%
[2]; potassium thiocyanate 140 mM
  Change in absorbance, Containing Antibody (Composition A): 1.8 mABS/min
  Change in absorbance, Without antibody (Composition B): 44.6 mABS/min
  Relative sensitivity: 99.8%
  Percent residual enzyme activity: 4.0%
[2]; potassium thiocyanate 200 mM
  Change in absorbance, Containing Antibody (Composition A): 2.2 mABS/min
  Change in absorbance, Without antibody (Composition B): 50.0 mABS/min
  Relative sensitivity: 111.9%
  Percent residual enzyme activity: 4.4%
[2]; potassium thiocyanate 300 mM
  Change in absorbance, Containing Antibody (Composition A): 3.0 mABS/min
  Change in absorbance, Without antibody (Composition B): 53.6 mABS/min
  Relative sensitivity: 119.9%
  Percent residual enzyme activity: 5.6%
[2]; potassium thiocyanate 400 mM
  Change in absorbance, Containing Antibody (Composition A): 3.8 mABS/min
  Change in absorbance, Without antibody (Composition B): 54.5 mABS/min
  Relative sensitivity: 121.9%
  Percent residual enzyme activity: 7.0%
[2]; potassium thiocyanate 500 mM
  Change in absorbance, Containing Antibody (Composition A): 4.7 mABS/min
  Change in absorbance, Without antibody (Composition B): 53.7 mABS/min
  Relative sensitivity: 120.1%
  Percent residual enzyme activity: 8.8%
[2]; potassium thiocyanate 600 mM
  Change in absorbance, Containing Antibody (Composition A): 5.7 mABS/min
  Change in absorbance, Without antibody (Composition B): 51.9 mABS/min
  Relative sensitivity: 116.1%
  Percent residual enzyme activity: 11.0%
[2]; potassium thiocyanate 700 mM
  Change in absorbance, Containing Antibody (Composition A): 7.2 mABS/min
  Change in absorbance, Without antibody (Composition B): 48.6 mABS/min
  Relative sensitivity: 108.7%
  Percent residual enzyme activity: 14.8%
[2]; potassium thiocyanate 800 mM
  Change in absorbance, Containing Antibody (Composition A): 8.2 mABS/min
  Change in absorbance, Without antibody (Composition B): 47.1 mABS/min
  Relative sensitivity: 105.4%
  Percent residual enzyme activity: 17.4%
[2]; potassium thiocyanate 900 mM
  Change in absorbance, Containing Antibody (Composition A): 9.6 mABS/min
  Change in absorbance, Without antibody (Composition B): 43.3 mABS/min
  Relative sensitivity: 96.9%
  Percent residual enzyme activity: 22.2%
